Here are results for two compounds from patent US10092621B2 (priority 2014, dated 2018).

In assay [1] the test system is healthy volunteers. Kind of assay: Phase 1 MAD study: gastric emptying by scintigraphic imaging. As to conditions: for Gastric Emptying Day 1 Improvement Over Baseline T25% / Gastric Emptying Day 1 Improvement Over Baseline T50%: single dose Day 1; for acceleration of liquid meal emptying (GET50) vs pre-dosing baseline: TID. It counts as in vivo, human. The method, then: Healthy male and female volunteers aged 18 to 55 years participated in the trial. […] The doses studied were SAD: 600, 1200, and 900 μg/kg and MAD: 300, 150, and 80 μg/kg q8H for seven days.

The subject of assay [2] is patients with post-operative ileus. As to conditions: Phase 2, once daily dosing for up to 7 days; cited from earlier work.
In assay [3] the test system is diabetic gastroparesis patients. Particulars: cited from earlier work.
The subject of assay [4] is healthy volunteers. Kind of assay: Phase 1 SAD/MAD study: growth hormone levels. It counts as in vivo, human. Particulars: for GH level spike: 150 μg/kg TID. How it is done:
A randomized, double-blind, placebo-controlled, single and multiple ascending IV dose (SAD and MAD), sequential-group study to assess the safety, tolerability, PK, and PD of ulimorelin in healthy subjects was initiated and conducted as follows.
Levels on Day 1 were meaningfully greater than those seen in placebo subjects at any timepoint (pooled placebo mean GH levels were 3.2 μg/L and ranged from about 0.1 to 11 μg/L). Over time, the spikes in GH levels diminished but remained measureable and within or slightly greater than the expected physiological range of the assay (0-0.8 μg/L for males and 0-8 μg/L for females).

For assay [5], the system named is intensive care unit patients with severe septic shock. Particulars: esmolol group; […] in the control group; cited from earlier work.

Marks after values point to notes of the source that are not given here.

ulimorelin: the “Gastric Emptying Day 4 Improvement Over Baseline T25%” value in the assay on healthy volunteers [1] (80 μg/kg q8H) was 35%; in the assay with healthy volunteers [1] (150 μg/kg q8H), 25%; in the assay with healthy volunteers [1] (300 μg/kg q8H), 31%. Moreover, the results for the “Gastric Emptying Day 4 Improvement Over Baseline T50%” value in the assay with healthy volunteers [1] (80 μg/kg q8H), in the assay on healthy volunteers [1] (150 μg/kg q8H) and in the assay with healthy volunteers [1] (300 μg/kg q8H) were 26%, 23%* and 27%*, respectively. The “Gastric Emptying Day 1 Improvement Over Baseline T25%” value was determined as 30% in the assay on healthy volunteers [1] (80 μg/kg), 45%* with healthy volunteers [1] (150 μg/kg) and 54%* in the assay with healthy volunteers [1] (300 μg/kg). Further, the “Gastric Emptying Day 1 Improvement Over Baseline T50%” value in the assay on healthy volunteers [1] (80 μg/kg) worked out at 14%; in the assay with healthy volunteers [1] (150 μg/kg), 34%*; in the assay with healthy volunteers [1] (300 μg/kg), 46%*. Besides, the “acceleration of liquid meal emptying (GET50) vs pre-dosing baseline” value in the assay on healthy volunteers [1] (Day 1, both treatment groups) is on record as “greater than 30%”; in the assay with healthy volunteers [1] (Day 4, both treatment groups), greater than 20%. Besides, the “time to first bowel movement (BM)” value in assay [2] is “shortened time to first bowel movement”. The gastric emptying result in assay [3] (Phase 2, 10 patients with diabetic gastroparesis, 30 min IV infusion once daily) was “accelerated gastric emptying of solid and liquid food”. In addition, the GCSI scores result in assay [3] (additional Phase 2 study of diabetic gastroparesis patients) was “improvements in GCSI Loss of Appetite and Vomiting scores”. For the same compound, the “Mean Max GH” value in the assay on healthy volunteers [4] (Female, 150 μg/kg, Day 1) was 18.8 μ/L; with healthy volunteers [4] (Female, 150 μg/kg, Day 4), 10.7 μ/L; with healthy volunteers [4] (Female, 150 μg/kg, Day 7) it was 6.2 μ/L; in the assay on healthy volunteers [4] (Female, 300 μg/kg, Day 1) it was 41.5 μ/L; in the assay on healthy volunteers [4] (Female, 300 μg/kg, Day 4), 31.5 μ/L; in the assay on healthy volunteers [4] (Female, 600 μg/kg, Day 1), 77.9 μ/L. The “Mean Max GH” value was found to be 83.4 μ/L with healthy volunteers [4] (Female, 900 μg/kg, Day 1); 76.0 μ/L in the assay on healthy volunteers [4] (Female, 1200 μg/kg, Day 1); 11.4 µg/L with healthy volunteers [4] (Male, 150 μg/kg, Day 1); 2.4 µg/L with healthy volunteers [4] (Male, 150 μg/kg, Day 4); 1.7 µg/L in the assay on healthy volunteers [4] (Male, 150 μg/kg, Day 7); 18.7 µg/L in the assay with healthy volunteers [4] (Male, 300 μg/kg, Day 1). For the same compound, the “Mean Max GH” value in the assay with healthy volunteers [4] (Male, 300 μg/kg, Day 4) is 4.0 µg/L; in the assay with healthy volunteers [4] (Male, 300 μg/kg, Day 7) it was 3.0 µg/L; in the assay on healthy volunteers [4] (Male, 600 μg/kg, Day 1) it was 41.7 µg/L; in the assay with healthy volunteers [4] (Male, 900 μg/kg, Day 1), 79.7 µg/L; in the assay on healthy volunteers [4] (Male, 1200 μg/kg, Day 1), 53.0 µg/L; in the assay with healthy volunteers [4] (Person, 300 μg/kg, Day 7, n = 1) it was 11.3* μ/L. For the same compound, the GH level spike in the assay on healthy volunteers [4] (females, Day 1) was roughly 19 µg/L; with healthy volunteers [4] (males, Day 1) it was roughly 11 µg/L.
For the compound `COC(=O)CCc1ccc(OCC(O)CNC(C)C)cc1` (centres unmarked) [esmolol], the twenty-eight day mortality in assay [5] is on record as 49.4%.
